Experimental data: the supplement of paper PMC13380429

Columns and labels:
Settings in all cases: 72 h
Caco-2 [1] = experiment: cell viability relative to DMSO; higher = less toxic
HepG2 [2] = experiment: as above
U2OS [3] = experiment: as above
Vero E6 [4] = experiment: as above
Caco-2 [5] = experiment: relative viability EC50 (midpoint between 100% and the lowest measured viability); higher = less toxic
HepG2 [6] = experiment: as above
U2OS [7] = experiment: as above
Vero E6 [8] = experiment: as above
Caco-2 [9] = experiment: drug sensitivity score (DSS) for viability; higher = more toxic; extreme values may be limits of the assay
HepG2 [10] = experiment: as above
U2OS [11] = experiment: as above
Vero E6 [12] = experiment: as above
Calu-3 [13] = experiment: cell viability relative to DMSO; higher = less toxic
Calu-3 [14] = experiment: relative viability EC50 (midpoint between 100% and the lowest measured viability); higher = less toxic
Calu-3 [15] = experiment: drug sensitivity score (DSS) for viability; higher = more toxic; extreme values may be limits of the assay

| Compound | cell viability (Caco-2 [1]; 1 nM) | cell viability (Caco-2 [1]; 10 nM) | cell viability (Caco-2 [1]; 100 nM) | cell viability (Caco-2 [1]; 1000 nM) | cell viability (Caco-2 [1]; 10000 nM) | cell viability (HepG2 [2]; 1 nM) | cell viability (HepG2 [2]; 10 nM) | cell viability (HepG2 [2]; 100 nM) | cell viability (HepG2 [2]; 1000 nM) | cell viability (HepG2 [2]; 10000 nM) | cell viability (U2OS [3]; 1 nM) | cell viability (U2OS [3]; 10 nM) | cell viability (U2OS [3]; 100 nM) | cell viability (U2OS [3]; 1000 nM) | cell viability (U2OS [3]; 10000 nM) | cell viability (Vero E6 [4]; 1 nM) | cell viability (Vero E6 [4]; 10 nM) | cell viability (Vero E6 [4]; 100 nM) | cell viability (Vero E6 [4]; 1000 nM) | cell viability (Vero E6 [4]; 10000 nM) | relative viability EC50 (Caco-2 [5]) | relative viability EC50 (HepG2 [6]) | relative viability EC50 (U2OS [7]) | relative viability EC50 (Vero E6 [8]) | drug sensitivity score (Caco-2 [9]) | drug sensitivity score (HepG2 [10]) | drug sensitivity score (U2OS [11]) | drug sensitivity score (Vero E6 [12]) | cell viability (Calu-3 [13]; 1 nM) | cell viability (Calu-3 [13]; 10 nM) | cell viability (Calu-3 [13]; 100 nM) | cell viability (Calu-3 [13]; 1000 nM) | cell viability (Calu-3 [13]; 10000 nM) | relative viability EC50 (Calu-3 [14]) | drug sensitivity score (Calu-3 [15]) |
| --- | --- | --- | --- | --- | --- | --- | --- | --- | --- | --- | --- | --- | --- | --- | --- | --- | --- | --- | --- | --- | --- | --- | --- | --- | --- | --- | --- | --- | --- | --- | --- | --- | --- | --- | --- |
| CCNCc1cc(C(C)(C)C)c(O)c(C(C)(C)C)c1 | 103% | 97.8% | 96.1% | 98.2% | 99.8% | 99.1% | 99.7% | 99.6% | 98.4% | 105% | 102% | 103% | 98.5% | 101% | 96.5% | 101% | 104% | 96.7% | 97.2% | 105% | > 10 µM | > 10 µM | > 10 µM | > 10 µM | 0 | 0 | 0 | 0 |  |  |  |  |  |  |  |
| Cc1cc(C)c(N)c(C#Cc2cccc(F)c2)n1 | 99.6% | 88.9% | 101% | 93.2% | 71.6% | 95.3% | 98.4% | 81.6% | 88.1% | 90.7% | 102% | 97.5% | 102% | 97.3% | 90.9% | 99.5% | 106% | 98.6% | 103% | 90.8% |  | > 10 µM | > 10 µM | > 10 µM | 2.2 | 0.7 | 0 | 0 | 104% | 102% | 95.9% | 102% | 87.7% | > 10 µM | 0 |
| CC(C)(O)CC(=O)NCCn1ccc2ncnc(Nc3ccc(Oc4cccc(C(F)(F)F)c4)c(Cl)c3)c21 [TAK-285] | 103% | 90.9% | 92.8% | 85% | 70% | 106% | 110% | 113% | 105% | 81.1% | 99.1% | 96.2% | 95% | 95.9% | 80.2% | 95.7% | 92.8% | 92.6% | 78.2% | 37.8% |  | > 10 µM | > 10 µM | 1.41 µM | 2.9 | 0.3 | 1 | 5.9 | 109% | 93.7% | 76.1% | 48.2% | 31% | 0.228 µM | 12.6 |
| OCc1c[nH]c2ccccc12 [indole-3-carbinol] | 103% | 103% | 99% | 97.8% | 87.4% | 105% | 96% | 99.9% | 88.1% | 101% | 99.9% | 101% | 99.3% | 104% | 93.7% | 104% | 97.1% | 93.1% | 99.2% | 97.5% | > 10 µM | > 10 µM | > 10 µM | > 10 µM | 0.2 | 0 | 0 | 0 |  |  |  |  |  |  |  |
| Nc1ccc2cc3ccc(N)cc3nc2c1 [proflavine-hemisulfate] | 100% | 88.4% | 99% | 105% | 49.3% | 96.5% | 103% | 92.7% | 76.2% | 2% |  |  |  |  |  | 94.6% | 100% | 90.7% | 89.4% | 35.8% | 3.6 µM | 1.57 µM |  | 1.9 µM | 2.3 | 9.1 |  | 5.3 | 89.2% | 95.9% | 103% | 103% | 62.6% |  | 1.6 |
| Cn1c(=O)c(F)c(Nc2ccc(I)cc2F)c2c(=O)n(C[C@@H](O)CO)cnc21 [TAK-733] | 89.4% | 84.6% | 70.7% | 66.4% | 58.7% | 88.1% | 41.2% | 24.8% | 19.5% | 17.2% | 94.5% | 98.7% | 85.9% | 36% | 10.8% | 96.9% | 82.9% | 62.3% | 51.6% | 42.2% |  | 0.0047 µM | 0.435 µM | 0.042 µM | 11.2 | 33.3 | 13.8 | 15.2 | 88.5% | 74.4% | 53.3% | 31.8% | 24.6% | 0.0323 µM | 21.1 |
| CN(CCCN1c2ccccc2CCc2ccccc21)CC(=O)c1ccc(Cl)cc1 [lofepramine] | 103% | 107% | 101% | 94.9% | 92% | 105% | 105% | 102% | 96.9% | 106% |  |  |  |  |  | 99% | 102% | 97.2% | 101% | 101% | > 10 µM | > 10 µM |  | > 10 µM | 0 | 0 |  | 0 |  |  |  |  |  |  |  |
| C=CC(C)(O)CCC=C(C)C (stereo not given) [linalool] | 110% | 99.2% | 99.2% | 93.7% | 99.2% | 95.5% | 102% | 96.5% | 100% | 95.2% | 103% | 95.7% | 97.4% | 95% | 97.9% | 101% | 104% | 96.3% | 102% | 98.7% | > 10 µM | > 10 µM | > 10 µM | > 10 µM | 0 | 0 | 0 | 0 |  |  |  |  |  |  |  |
| CC1=C(CCC(=O)O)c2cc3[nH]c(cc4nc(cc5[nH]c(cc1n2)c(C)c5C(C)O)C(C)=C4C(C)O)c(C)c3CCC(=O)O (stereo not given) [hematoporphyrin] | 109% | 96.3% | 96.6% | 105% | 74.1% | 103% | 99.9% | 91.3% | 99.1% | 79.2% | 100% | 96.7% | 102% | 93.6% | 94.5% | 106% | 106% | 98.8% | 104% | 80.3% |  | > 10 µM | > 10 µM | > 10 µM | 0.8 | 0.8 | 0 | 0.4 | 97.8% | 89% | 87.2% | 94.5% | 88.1% | > 10 µM | 0.6 |
| CNC(=O)CN1CCC(Oc2cc3c(Nc4cccc(Cl)c4F)ncnc3cc2OC)CC1 [AZD8931] | 96.5% | 93.7% | 90.2% | 77.7% | 65.5% | 106% | 95.7% | 87.8% | 95.2% | 85.2% | 95.4% | 94.8% | 93.6% | 89.6% | 87.9% | 97.2% | 97.7% | 78.3% | 58.5% | 42.1% |  | > 10 µM | > 10 µM | 0.233 µM | 4.6 | 0.5 | 0.1 | 10.2 | 109% | 80.5% | 60.7% | 33.8% | 22.5% | 0.0843 µM | 18.2 |
| COC(=O)C1=C(C)NC(C)=C(C(=O)OC2CCCN(Cc3ccccc3)C2)C1c1cccc([N+](=O)[O-])c1 (stereo not given) [benidipine] | 97.7% | 108% | 101% | 97% | 64.4% | 109% | 101% | 105% | 105% | 80.2% | 100% | 102% | 93.8% | 99.6% | 81.7% | 102% | 101% | 106% | 99% | 104% |  | > 10 µM | > 10 µM | > 10 µM | 2.1 | 0.4 | 0.5 | 0 | 99% | 98.8% | 106% | 102% | 77.8% | > 10 µM | 0.6 |
| COc1cc2ncnc(Nc3ccc(F)c(Cl)c3)c2cc1NC(=O)/C=C/CN1CCCCC1 [dacomitinib] | 95.3% | 89.6% | 90.6% | 69.3% | 71.2% | 104% | 97.8% | 91.3% | 97% | 37.8% | 94.3% | 97.3% | 94.5% | 94.7% | 43.6% | 99.6% | 92.7% | 59.5% | 48.2% | 39.5% |  | 2.79 µM | 2.39 µM | 0.0579 µM | 5.6 | 3.8 | 3.9 | 15.8 | 83.5% | 73.7% | 40.8% | 32.1% | 17% | 0.027 µM | 23.8 |
| O=C1CN2Cc3c(ccc(Cl)c3Cl)N=C2N1 [anagrelide] | 101% | 97.8% | 97.6% | 99.8% | 96.9% | 101% | 102% | 104% | 101% | 96.7% |  |  |  |  |  | 106% | 107% | 103% | 102% | 99.3% | > 10 µM | > 10 µM |  | > 10 µM | 0 | 0 |  | 0 |  |  |  |  |  |  |  |
| Nc1nc(NCCc2ccc(O)cc2)nc2nc(-c3ccco3)nn12 | 97.2% | 94.5% | 103% | 104% | 72.5% | 109% | 98.6% | 103% | 49.2% | 32.2% | 99.5% | 103% | 102% | 103% | 94.5% | 95.1% | 95.3% | 98.1% | 94.6% | 95% |  | 0.648 µM | > 10 µM | > 10 µM | 0.9 | 9.7 | 0 | 0 | 96.1% | 110% | 97.3% | 98.2% | 106% | > 10 µM | 0 |
